Source: US9174974B2, “Macrocyclic factor VIIa inhibitors” (BRISTOL-MYERS SQUIBB COMPANY, priority 2012, dated 2015)

Assays:
human FVIIa = human FVIIa (Homo sapiens (Human), UniProt P08709); assay: FVIIa Ki (37° C.), FVIIa-Xase assay; assay type: biochemical; conditions: for Ki: read-out: FVIIa Ki, nM 37° C.; for Ki(HK1)/Ki(FVIIa): selectivity ratio, tissue kallikrein (HK1) vs FVIIa
tissue kallikrein (HK1) = tissue kallikrein (HK1) (Homo sapiens (Human), UniProt P06870); assay: Tissue kallikrein-1 (HK1) Ki, fluorogenic substrate assay; assay type: biochemical; conditions: 37° C.
Chain of tissue kallikrein (HK1) (P06870 25-262): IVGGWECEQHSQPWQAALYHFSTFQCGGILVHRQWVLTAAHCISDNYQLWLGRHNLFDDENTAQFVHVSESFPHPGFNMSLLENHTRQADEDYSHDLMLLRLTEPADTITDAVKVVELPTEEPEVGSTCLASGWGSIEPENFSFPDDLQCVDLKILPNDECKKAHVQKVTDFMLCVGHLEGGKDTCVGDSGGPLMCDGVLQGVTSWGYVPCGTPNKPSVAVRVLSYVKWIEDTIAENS

Chain of human FVIIa (P08709 61-212): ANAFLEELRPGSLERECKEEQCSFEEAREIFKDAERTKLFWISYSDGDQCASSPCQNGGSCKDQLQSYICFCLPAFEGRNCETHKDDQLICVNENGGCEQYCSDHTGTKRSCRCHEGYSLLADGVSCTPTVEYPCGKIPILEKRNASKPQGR
Chain of human FVIIa (P08709 213-466): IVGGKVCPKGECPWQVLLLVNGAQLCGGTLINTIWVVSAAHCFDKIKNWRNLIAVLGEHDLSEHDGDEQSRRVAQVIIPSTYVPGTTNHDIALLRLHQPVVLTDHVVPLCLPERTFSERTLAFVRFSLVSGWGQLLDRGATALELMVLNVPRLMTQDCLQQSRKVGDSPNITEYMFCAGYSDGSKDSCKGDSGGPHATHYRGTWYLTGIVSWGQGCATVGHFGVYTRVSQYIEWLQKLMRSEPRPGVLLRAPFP
Chain of human FVIIa (P13726 33-295 partner): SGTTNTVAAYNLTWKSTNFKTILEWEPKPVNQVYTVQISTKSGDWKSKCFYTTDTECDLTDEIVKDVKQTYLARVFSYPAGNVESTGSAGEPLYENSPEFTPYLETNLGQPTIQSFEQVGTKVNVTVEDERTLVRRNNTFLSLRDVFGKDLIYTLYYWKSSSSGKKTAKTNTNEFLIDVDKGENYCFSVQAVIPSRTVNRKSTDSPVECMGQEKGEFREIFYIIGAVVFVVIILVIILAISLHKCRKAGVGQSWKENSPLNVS

SMILES	Ki (human FVIIa) [nM]	Ki(HK1)/Ki(FVIIa) (human FVIIa)	Ki (tissue kallikrein (HK1)) [nM]
Cc1cc2ccc1[C@@H](C)COC(=O)Nc1cc(F)c(OCCN3CCCC3=O)c(c1)CN(C)C(=O)[C@@H]2Nc1ccc2c(N)nccc2c1.O=C(O)C(F)(F)F [Example 35, (2R,15R)-2-[(1-Aminoisoquinolin-6-yl)amino]-8-fluoro-4,15,20-trimethyl-7-[2-(2-oxopyrrolidin-1-yl)ethoxy]-13-oxa-4,11-diazatricyclo[14.2.2.16,10]henicosa-1(18),6,8,10 (21),16,19-hexaene-3,12-dione; trifluoroacetic acid]	0.14	1500	210
Cc1cc2ccc1[C@@H](C)COC(=O)Nc1cc(F)c(S(=O)(=O)C(C)C)c(c1)CN(C)C(=O)[C@@H]2Nc1cc(F)c2c(N)nccc2c1.O=C(O)C(F)(F)F [Example 20, (2R,15R)-2-[(1-Amino-8-fluoroisoquinolin-6-yl)amino]-8-fluoro-4,15,17-trimethyl-7-(propane-2-sulfonyl)-13-oxa-4,11-diazatricyclo[14.2.2.1^6,10]henicosa-1(18),6,8,10 (21),16,19-hexaene-3,12-dione; trifluoroacetic acid]	0.36	333	120
Cc1cc2ccc1[C@@H](C)COC(=O)Nc1ccc([C@@H](CC(F)F)C(=O)O)c(c1)CN(C)C(=O)[C@@H]2Nc1ccc2c(N)ncc(F)c2c1.O=C(O)C(F)(F)F [Example 10, (2R)-2-[(2R,15R)-2-[(1-Amino-4-fluoroisoquinolin-6-yl)amino]-4,15,17-trimethyl-3,12-dioxo-13-oxa-4,11-diazatricyclo[14.2.2.1^6,10]henicosa-1(18),6,8,10 (21),16,19-hexaen-7-yl]-4,4-difluorobutanoic acid; trifluoroacetic acid]	0.9	356	320
